Test results published in US20240016943A1, “SYNTHETIC DNA BINDING DOMAINS AND USES THEREOF” (The University of Chicago, priority 2020, published 2024).
Values belong to the substance of their own block, whether it stands above or below them. Starred links: 1 amine or outer side, 2 acyl side, 3 side chain; linkers in the order of their positions; H or OH if unused. Positions of bridges follow the written chain, without caps; N, C: chain ends. Non-standard residues stand in square brackets, D forms with d. Chains are numbered I, II in the order given. X1 = O=C1CC([*:2])C(=O)N1CC(=O)[*:1]; S5 = C=CCCC[C@](C)(N)C(=O)O; Nle = CCCC[C@H](N)C(=O)O; Aib = CC(C)(N)C(=O)O

Legend:
[1] = system: duplex DNA probes E1, E2, and E3; experiment: DNA probe specificity EMSA; type: binding; conditions: STR69 1 μM, STR640 125 nM; for DNA motif specificity: B-Z 100 nM, probes E1, E2, E3
Description: (§1) For direct DNA binding experiments, STRs were serial diluted (3-fold increments) at 2× concentration in 20 μL of 1× binding buffer (20 mM HEPES pH 8.0, 150 mM NaCl, 5% glycerol, 1 mM EDTA, 2 mM MgCl2, 0.5 mg/mL BSA, 1 mM DTT, 0.05% NP-40). 20 μL of 10 nM IRD700-labeled E-box probe in 1× binding buffer was added and samples were incubated for 30 min at RT followed by 15 min at 4° C. 3.5 μL of each reaction was loaded on a 6% acrylamide, 0.5× TBE gel equilibrated to 4° C. Higher affinity compounds (e.g., STR116 and STR118) were run at 10-fold lower concentration of compound and 0.5 nM final concentration of IRD-labeled oligo. Electrophoresis was carried out for 60 min at 110 V and 4° C. with 0.5× TBE+1 mM MgCl2 running buffer. Gels were pre-run at 110 V for 60 min prior to sample loading. For specificity experiments, 25 nM STR116, 10 nM STR118, or 5 nM MAX, and 5 nM labeled E-box probe were incubated with 0, 5, 25, 125, or 625 nM unlabeled competitor oligo for 30 min at RT in binding buffer. For protein competition experiments, 1 nM TRD-Ebox oligo was added to a mixture of STR (0-1 mM) and 30 nM protein (MAX or MYC:MAX) and incubated for 30 minutes at room temperature in binding buffer. For DNA probe specificity experiments B-Z (100 nM), STR69 (1 μM), and STR640 (125 nM) and MAX (10 nM) were incubated with 1 nM IRD-labeled oligo and 0.01 mg/ml salmon sperm DNA for 30 minutes at RT in binding buffer. All samples were equilibrated to 4° C. for 15 minutes before loading onto 6% gel. Gels were imaged using an Odyssey Li-COR. ImageJ was used to quantify band intensity and fraction bound DNA was calculated by dividing band intensity of bound DNA by the band intensity of the free DNA from a vehicle treated lane. A four-parameter dose-response curve fit to a plot of normalized fraction bound DNA vs. log B-Z concentration yields an IC50 which was reported as the apparent KD.

[2] = system: E-box DNA; type: binding
Description: as §1, with “For DNA probe specificity experiments B-Z (100 nM), STR69 (1 μM), and STR640 (125 nM) and MAX (10 nM) were incubated with 1 nM IRD-labeled oligo and 0.01 mg/ml salmon sperm DNA for 30 minutes at RT in binding buffer. All samples were equilibrated to 4° C. for 15 minutes before loading onto 6% gel. Gels were imaged using an Odyssey Li-COR.” left out, “A four-parameter dose-response curve fit to a plot of normalized fraction bound DNA vs. log B-Z concentration yields an IC50 which was reported as the apparent KD.” left out

[3] = biological target: T1, Trypsin (Sus scrofa, UniProt P00761); experiment: In vitro trypsin stability assay; type: in vitro ADME
T1 construct: purchased Thermo-Pierce
T1 sequence (P00761 9-231): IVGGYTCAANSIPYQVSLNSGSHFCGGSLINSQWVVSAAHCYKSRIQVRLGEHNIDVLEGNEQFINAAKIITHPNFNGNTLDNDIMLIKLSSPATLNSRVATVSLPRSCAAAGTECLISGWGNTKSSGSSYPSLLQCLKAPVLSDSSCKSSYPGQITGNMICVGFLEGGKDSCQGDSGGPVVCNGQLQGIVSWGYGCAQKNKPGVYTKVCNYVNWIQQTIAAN
Description: Each STR, 30 μM, was dissolved in 330 μL of 20 mM phosphate buffer pH 7.4 in a microcentrifuge tube and heated to 37° C. on a tabletop shaker (500 rpm). 30 μL of the reaction mixture was added to 60 uL of quenching solution (ACN+3% formic acid with 500 nM fmoc-lysine-OH internal standard) for 0 s timepoint sample. Thermo-Pierce MS-Grade Trypsin was added to a final concentration of 0.5 μg/ml and additional 30 μL aliquots were quenched at indicated timepoints. Quenched samples were cooled to 4° C. and centrifuged at 20,000×G for 3 min. […] Intact STR was calculated by normalizing the background subtracted integrated area under the curve for the EIC of (M+4H)/4, ±0.5 mass units, where M is mass and H is hydrogen ion, to the integrated area under the curve for the A280 peak of the internal standard. Fraction intact STR was calculated by dividing the intact STR by the normalized STR signal in the initial 0 s sample. GraphPad Prism was used to plot fraction intact STR vs time, and the proteolytic half-life was derived using a non-linear one-phase decay with the plateau constant set equal to zero.

[4] = Solubility in RPMI media+10% FBS; type: physicochemical; conditions: RPMI media with 10% FBS, read-out: soluble concentration
[5] = system: E-box probe; experiment: Conditioned media binding assay (retained E-box binding by EMSA); type: in vitro ADME; conditions: HeLa conditioned media, 37° C.
Description: HeLa cells were grown to 90% confluency in a 6 cm plate and the media was collected. 10 μM STR was resuspended in 0.5 mL of the conditioned media and incubated with gentle shaking at 37° C. At 0, 24 and 48 hrs., treatment media (2 μL) was diluted into 48 μL of 1× EMSA binding buffer containing 5 nM E-box probe. DNA binding was measured using an electrophoretic mobility shift assay. Fraction bound to E-box probe was calculated by dividing the band intensity of bound DNA by the sum of the bound DNA+free DNA.

[6] = Circular dichroism spectroscopy; type: physicochemical; conditions: 25-85° C.
Description: Lyophilized STR samples were resuspended in 20 mM phosphate buffer pH 7.4 and diluted to 10 μM. Circular dichroism spectra were obtained on a Jasco J-170 using a 0.1 cm quartz cuvette with the following settings: wavelength, 260-180 nm; data pitch, 1.0 nm; scan rate, 50 nm min^−1; accumulations, 3; temperature, 25-85° C. with 6° C. increments. Means-Movement smoothing at the lowest setting was applied to the recorded data.

[7] = system: E-box oligonucleotide probe; experiment: DNA competition (specificity) EMSA with unlabeled competitor oligo; type: binding; conditions: 25 nM STR116, 10 nM STR118, or 5 nM MAX; 0-625 nM competitor
Description: as §1

Substance: I: Ac-KRAHHNALERKRRDHIKDSFHKLRDSVP-NH2 / II: Ac-SRAQILCKATEYIQY[Nle]RRKN-NH2 (linker I:22-II:7 via X1) [B-Z]
EMSA Fraction bound (sDBD = 500 nM) [2]: 100%
trypsin proteolysis (in words) ([3]; LC-MS): rapidly proteolyzed at several positions

Substance: I: Ac-PRFQSA[S5]DKR[S5]HHNALERKRRDHIKDSFHKLRDSVP-NH2 / II: Ac-SRAQILCKATEYIQRLR[S5]KIR[S5]LE-NH2 (staple I:7-I:11, II:18-II:22; linker I:30-II:7 via X1) [B11-Z80]
solubility [4]: > 75 µM

Substance: I: Ac-PRFQSA[S5]DKR[S5]HHNALERKRRDHIKDSFHKLRDSVP-NH2 / II: Ac-SR[Aib]QILCQATEYIQSLRR[S5]IHT[S5]E-NH2 (staple I:7-I:11, II:19-II:23; linker I:30-II:7 via X1) [B11-Z70]
solubility [4]: > 75 µM

Substance: MAX: Human MAX (residues 22-102) protein expressed with N-terminal hexahistidine tag, used in homodimeric form
half-life in trypsin stability assay ([3]; 0.5 μg/ml trypsin, 37° C.): 20 s
competition by DNA in which the E-box had been replaced entirely [7]: no competition
competition by DNA with mutation of the two central E-box nucleotides (CG to TA) [7]: some competition
competition of E-box probe binding by excess unlabeled E-box oligonucleotide [7]: effectively competed

Further lines, with some results ahead:

binding to the E-box motif [1]: minimal binding
Substance: Ac-LRLKINSRERKRMHDLNIAMDK(ButMal)LREVMP-NH2 + Ac-SKIATLCLARNYILMLTNSL-NH2 (chain 1 XRLKINSRERKRMHDLNIAMDXLREVMX; chain 2 XKIATLCLARNYILMLTNSX; not fully specified; ButMal ligation; N-acetyl; C-terminal amides; (1)..(1) Xaa is acetyl-L; (22)..(22) Xaa is K(ButMal) (butyrlmaleimide-lysine); (28)..(28) Xaa is P-NH2; (1)..(1) Xaa is acetyl-S; (20)..(20) Xaa is L-NH2) [STR69]
DNA motif specificity [1]: show specificity for the OLIG2- and TFAP4-preferred motifs (target sequences in E3 and E2, respectively)

binding to the E-box motif [1]: minimal binding
Substance: Ac-RREIANSNERRRMQSINAGFQK(GlyMal)LKTLIP-NH2 + Ac-SKAAILCQTAEYIFRLRRKIHTLE-NH2 (chain 1 XREIANSNERRRMQSINAGFQXLKTLIX; chain 2 XKAAILCQTAEYIFRLRRKIHTLX; GlyMal ligation; N-acetyl; C-terminal amides; (1)..(1) Xaa is acetyl-R; (22)..(22) Xaa is K(GlyMal) (glycylmaleimide-lysine); (28)..(28) Xaa is P-NH2; (1)..(1) Xaa is acetyl-S; (24)..(24) Xaa is E-NH2) [STR640]
DNA motif specificity [1]: show specificity for the OLIG2- and TFAP4-preferred motifs (target sequences in E3 and E2, respectively)

stability in conditioned media (in words) [5]: increased stability in conditioned media
Substance: I: Ac-PRFQSA[S5]DKR[S5]HHNALERKRRDHIKDSFHKLRDSVP-NH2 / II: Ac-SRAQILCKATEYIQYLR[S5]KIH[S5]LE-NH2 (staple I:7-I:11, II:18-II:22; linker I:30-II:7 via X1) [STR118, Ac-PRFQSA(S5)DKR(S5)HHNALERKRRDHIKDSFHK(GlyMal)LRDSVP-NH2 + Ac-SRAQILCKATEYIQYLR(S5)KIH(S5)LE-NH2]
thermal stability by temperature-dependent CD [6]: highly thermally stable, with retention of helicity even at 85 °C

stability in conditioned media (in words) [5]: increased stability in conditioned media
Substance: I: Ac-PRFQSA[S5]DKR[S5]HHNALERKRRDHIKDSFHKLRDSVP-NH2 / II: Ac-SR[Aib]QILCQATEYIQ[S5][Nle]RR[S5]LHTHE-NH2 (staple I:7-I:11, II:15-II:19; linker I:30-II:7 via X1) [STR116, Ac-PRFQSA(S5)DKR(S5)HHNALERKRRDHIKDSFHK(GlyMal)LRDSVP-NH2 + Ac-SR(Aib)QILCQATEYIQ(S5)(Nle)RR(S5)LHTHE-NH2]
